Consider ten molecules from patent publication US20220024945A1, “THERAPEUTIC COMPOUNDS AND COMPOSITIONS, AND METHODS OF USE THEREOF” (Genentech, Inc., priority 2017, published 2022).

As a reminder, the pKi is −log10 of the Ki, conventionally taken in molar units. A word on the pIC50: it is the IC50 on a negative log10 scale, so that one unit is a factor of ten.

Experiment [1] deals with isolated recombinant JAK1 kinase domain (Homo sapiens, UniProt P23458). As to the kind of experiment: JAK enzyme assay (Caliper LabChip), JAK1 kinase domain. In kind it is biochemical. Particulars: ATP 25 μM; 1.5 nM JAK1; Morrison tight binding model.
Experiment [2] deals with isolated recombinant JAK2 kinase domain (Homo sapiens, UniProt O60674). As to the kind of experiment: JAK enzyme assay (Caliper LabChip), JAK2 kinase domain. Conditions: ATP 25 μM, 0.2 nM JAK2, Morrison tight binding model.
Procedure: JAK Enzyme Assays were Carried Out as Follows:
The activity of the isolated recombinant JAK1 and JAK2 kinase domain was measured by monitoring phosphorylation of a peptide derived from JAK3 ([sequence] fluorescently labeled on the N-terminus with 5-carboxyfluorescein) using the Caliper LabChip® technology (Caliper Life Sciences, Hopkinton, Mass.). […] Reactions were incubated at 22° C. in 384-well polypropylene microtiter plates for 30 minutes and then stopped by addition of 25 μL of an EDTA containing solution (100 mM HEPES buffer (pH 7.2), 0.015% Brij-35, 150 mM EDTA), resulting in a final EDTA concentration of 50 mM. After termination of the kinase reaction, the proportion of phosphorylated product was determined as a fraction of total peptide substrate using the Caliper LabChip® 3000 according to the manufacturer's specifications.
In experiment [3] the test system is JAK1-dependent STAT6 phosphorylation downstream of IL-13 stimulation, BEAS-2B cells. As to the kind of experiment: JAK1 pathway assay in cell lines: P-STAT6 in BEAS-2B cells + IL13. It counts as cell-based. Conditions: Homo sapiens, BEAS-2B, 1 h, BEAS-2B human bronchial epithelial cells, 1 hr compound preincubation, read-out: P-STAT6 BEAS2B + IL13 IC50. As to the method: JAK1 Pathway Assay in Cell Lines was Carried Out as Follows:
Inhibitor potency (EC50) was determined in cell-based assays designed to measure JAK1 dependent STAT phosphorylation. As noted above, inhibition of IL-4, IL-13, and IL-9 signaling by blocking the Jak/Stat signaling pathway can alleviate asthmatic symptoms in pre-clinical lung inflammation models (Mathew et al., 2001, J Exp Med 193(9): 1087-1096; Kudlacz et. al., 2008, Eur J. Pharmacol 582(1-3): 154-161).
In one assay approach, TF-1 human erythroleukemia cells obtained from the American Type Culture Collection (ATCC; Manassas, Va.) were used to measure JAK1-dependent STAT6 phosphorylation downstream of IL-13 stimulation. Prior to use in the assays, TF-1 cells were starved of GM-CSF overnight in OptiMEM medium (Life Technologies, Grand Island, N.Y.) supplemented with 0.5% charcoal/dextran stripped fetal bovine serum (FBS), 0.1 mM non-essential amino acids (NEAA), and 1 mM sodium pyruvate. The assays were run in 384-well plates in serum-free OptiMEM medium using 300,000 cells per well. In a second assay approach, BEAS-2B human bronchial epithelial cells obtained from ATCC were plated at 100,000 cells per well of a 96-well plate one day prior to the experiment. The BEAS-2B assay was run in complete growth medium (bronchial epithelial basal medium plus bulletkit; Lonza; Basel, Switzerland).
Test compounds were serially diluted 1:2 in DMSO and then diluted 1:50 in medium just before use. Diluted compounds were added to the cells, for a final DMSO concentration of 0.2%, and incubated for 30 m (for the TF-1 assay) or 1 hr (for the BEAS-2B assay) at 37° C. Then, cells were stimulated with human recombinant cytokine at their respective EC90 concentrations, as previously determined for each individual lot. Cells were stimulated with […] (R&D Systems, Minneapolis, Minn.) for 15 m/at 37° C. The TF-1 cell reactions were stopped by the direct addition of 10× lysis buffer (Cell Signaling Technologies, Danvers, Mass.), whereas the BEAS-2B cell incubations were halted by the removal of medium and addition of 1× lysis buffer. The resultant samples were frozen in the plates at −80° C. Compound mediated inhibition of STAT6 phosphorylation was measured in the cell lysates using MesoScale Discovery (MSD) technology (Gaithersburg, Md.). EC50 values were determined as the concentration of compound required for 50% inhibition of STAT phosphorylation relative to that measured for the DMSO control.

Molecules are shown by their SMILES. pIC50, pKi: −log10 of the molar value.

Chain of isolated recombinant JAK2 kinase domain (O60674 849-1124 limits assumed): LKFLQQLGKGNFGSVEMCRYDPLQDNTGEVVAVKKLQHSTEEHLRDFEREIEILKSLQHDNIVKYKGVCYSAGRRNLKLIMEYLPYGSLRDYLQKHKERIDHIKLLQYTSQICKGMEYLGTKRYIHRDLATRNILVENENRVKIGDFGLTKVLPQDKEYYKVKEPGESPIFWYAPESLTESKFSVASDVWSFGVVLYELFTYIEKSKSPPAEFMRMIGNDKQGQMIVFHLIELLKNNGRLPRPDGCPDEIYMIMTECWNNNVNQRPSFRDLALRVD
Chain of isolated recombinant JAK1 kinase domain (P23458 875-1153 limits assumed): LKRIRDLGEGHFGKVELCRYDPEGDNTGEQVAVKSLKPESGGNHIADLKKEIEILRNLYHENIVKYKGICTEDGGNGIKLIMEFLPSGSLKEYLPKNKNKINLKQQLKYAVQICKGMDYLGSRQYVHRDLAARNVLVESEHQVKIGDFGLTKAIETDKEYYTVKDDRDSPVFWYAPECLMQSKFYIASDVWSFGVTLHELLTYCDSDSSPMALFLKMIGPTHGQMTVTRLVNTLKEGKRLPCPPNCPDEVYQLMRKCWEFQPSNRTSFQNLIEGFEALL

As for `CSc1ccc(OC(F)F)c(-c2nn(CC(=O)N3CCCCC3)cc2NC(=O)c2cnn3cccnc23)c1` [Example 29], the figures for the pKi in experiment [1] and in experiment [2] were 9.60 and 9.41, respectively. Also, the pIC50 in experiment [3] is 7.85.

As to `O=C(Nc1c[nH]nc1-c1cc(SC(F)(F)F)ccc1OC(F)F)c1cnn2cccnc12` [Example 5, N-[3-[2-(difluoromethoxy)-5-(trifluoromethylsulfanyl)phenyl]-1H-pyrazol-4-yl]pyrazolo[1,5-a]pyrimidine-3-carboxamide], the figures for the pKi in experiment [1] and in experiment [2] were 9.30 and 9.68, respectively. In addition, the pIC50 in experiment [3] was 8.22.

Regarding `O=C(Nc1cn(CCO)nc1-c1cc(SC(CF)CF)ccc1OC(F)F)c1cnn2cccnc12` [Example 22, N-[3-[2-(difluoromethoxy)-5-[2-fluoro-1-(fluoromethyl)ethyl]sulfanyl-phenyl]-1-(2-hydroxyethyl)pyrazol-4-yl]pyrazolo[1,5-a]pyrimidine-3-carboxamide], the results for the pKi in experiment [1] and in experiment [2] were 9.49 and 9.72, respectively. Moreover, the pIC50 in experiment [3] was 7.74.

For the molecule `O=C(Nc1c[nH]nc1-c1cc(SCC(F)(F)F)ccc1OC(F)F)c1cnn2cccnc12` [Example 3, N-[3-[2-(difluoromethoxy)-5-(2,2,2-trifluoroethylsulfanyl)phenyl]-1H-pyrazol-4-yl]pyrazolo[1,5-a]pyrimidine-3-carboxamide], the pKi in experiment [1] is 9.80; in experiment [2], 9.92. Besides, the pIC50 in experiment [3] is 8.00.

For `O=C(Nc1c[nH]nc1-c1cc(SC2CCCC2)ccc1OC(F)F)c1cnn2cccnc12` [Example 7, N-[3-[5-cyclopentylsulfanyl-2-(difluoromethoxy)phenyl]-1H-pyrazol-4-yl]pyrazolo[1,5-a]pyrimidine-3-carboxamide], the negative-log Ki (pKi) in experiment [1] is 9.12; in experiment [2], 9.43. The negative-log IC50 (pIC50) in experiment [3] is 7.92.

As to `O=C(Nc1c[nH]nc1-c1cc(SC2CCCCC2)ccc1OC(F)F)c1cnn2cccnc12` [Example 2, N-[3-[5-cyclohexylsulfanyl-2-(difluoromethoxy)phenyl]-1H-pyrazol-4-yl]pyrazolo[1,5-a]pyrimidine-3-carboxamide], the figures for the pKi in experiment [1] and in experiment [2] were 9.17 and 9.55, respectively. In addition, the pIC50 in experiment [3] was 7.37.

As for `CC(C)Sc1ccc(OC(F)F)c(-c2nn(CCO)cc2NC(=O)c2cnn3cccnc23)c1` [Example 10, N-[3-[2-(difluoromethoxy)-5-isopropylsulfanyl-phenyl]-1-(2-hydroxyethyl)pyrazol-4-yl]pyrazolo[1,5-a]pyrimidine-3-carboxamide], the pKi in experiment [1] was 9.24; in experiment [2], 9.62. In addition, the pIC50 in experiment [3] was 7.77.

`CSc1ccc(OC(F)F)c(-c2nn(CC(N)=O)cc2NC(=O)c2cnn3cccnc23)c1` [Example 27, N-[1-(2-amino-2-oxo-ethyl)-3-[2-(difluoromethoxy)-5-methylsulfanyl-phenyl]pyrazol-4-yl]pyrazolo[1,5-a]pyrimidine-3-carboxamide]: the values for the pKi in experiment [1] and in experiment [2] were 9.54 and 10.00, respectively. Further, in experiment [3], the pIC50 was 7.92.

In the case of `O=C(Nc1cn(C2CN(C3COC3)C2)nc1-c1cc(SC2COC2)ccc1OC(F)F)c1cnn2cccnc12` [Example 35, N-[3-[2-(difluoromethoxy)-5-(oxetan-3-ylsulfanyl)phenyl]-1-[1-(oxetan-3-yl)azetidin-3-yl]pyrazol-4-yl]pyrazolo[1,5-a]pyrimidine-3-carboxamide], the pKi in experiment [1] is 8.94; in experiment [2], 9.05. Moreover, the pIC50 in experiment [3] was 7.38.

Regarding `CN(C)C(=O)Cn1cc(NC(=O)c2cnn3cccnc23)c(-c2cc([S+](C)[O-])ccc2OC(F)F)n1` (stereo not drawn) [Example 48, N-(3-(2-(difluoromethoxy)-5-(methylsulfinyl)phenyl)-1-(2-(dimethylamino)-2-oxoethyl)-1H-pyrazol-4-yl)pyrazolo[1,5-a]pyrimidine-3-carboxamide], the values for the pKi in experiment [1] and in experiment [2] were 8.87 and 8.35, respectively. In addition, the pIC50 in experiment [3] is 6.29.
